From ChEMBL document CHEMBL3588748, “Original 2-(3-Alkoxy-1H-pyrazol-1-yl)azines Inhibitors of Human Dihydroorotate Dehydrogenase (DHODH)” (J Med Chem, 2015) come the findings set out here.

Active and inactive are the calls of the source. No rule for the calls is given here.

In one assay the test system is Plasmodium falciparum. The experiment in a line: Antiplasmodial activity against Plasmodium falciparum 3D7 assessed as inhibition of parasite growth at 8.66 ug/ml by SYBR Green I dye based assay. Type of assay: functional, organism-based.

Description for Measles morbillivirus: Antiviral activity against measles virus rMV2/Luc infected in HEK-293T cells assessed as inhibition of virus growth incubated for 24 hrs by firefly luciferase reporter gene assay

In the case of `CCOc1nn(-c2ccc(C3CC3)cn2)c(C)c1Oc1ccccc1C(F)(F)F`, the “growth inhibition (GI)” value in the assay on Plasmodium falciparum was “inactive”. This compound returned a pMIC50 in the assay on Measles morbillivirus of 7.3.

`CCOc1nn(-c2ccc(Cl)cn2)c(C)c1Cc1ccccc1`: the “growth inhibition (GI)” value with Plasmodium falciparum was “inactive”. The pMIC50 in the assay on Measles morbillivirus worked out at 5.5.

For `CCOc1nn(-c2ncccc2C)c(C)c1Cc1ccccc1`, the “growth inhibition (GI)” value with Plasmodium falciparum was “inactive”. Further, the pMIC50 in the assay on Measles morbillivirus is recorded as under 5.

As to `CCOc1nn(-c2ccc(Br)cn2)c(C)c1Cc1ccccc1`, in the assay with Plasmodium falciparum, the “growth inhibition (GI)” value was “inactive”. In the assay on Measles morbillivirus, this compound had a pMIC50 of 5.3.

As to `Cc1c(Oc2ccc(F)cc2)c(OC(C)C)nn1-c1ccc(C2CC2)cn1` [IPP/CNRS-A019], the “growth inhibition (GI)” value with Plasmodium falciparum is “inactive”. In the assay with Measles morbillivirus, this compound showed a pMIC50 of 5.9.

Turning to `CCOc1nn(-c2ccc(C3CC3)cn2)c(C)c1Cc1ccccc1`, in the assay on Plasmodium falciparum, the “growth inhibition (GI)” value was “inactive”. This compound had a pMIC50 with Measles morbillivirus of 7.

Consider `CCc1nnc(-n2nc(OC(C)C)c(Oc3c(F)cccc3F)c2C)nc1O`, for which, in the assay with Plasmodium falciparum, the “growth inhibition (GI)” value is “inactive”. This compound yielded a pMIC50 in the assay with Measles morbillivirus of 7.6.

As to `Cc1c(Oc2c(F)cccc2F)c(OC(C)C)nn1-c1cnc(C(F)(F)F)cn1`, the “growth inhibition (GI)” value in the assay with Plasmodium falciparum was “inactive”. Moreover, in the assay on Measles morbillivirus, the pMIC50 is 5.3.

On to `CCc1cnc(-n2nc(OC(C)C)c(Oc3c(F)cccc3F)c2C)c(F)c1`, for which, in the assay with Plasmodium falciparum, the “growth inhibition (GI)” value is “inactive”. The compound further returned a pMIC50 in the assay with Measles morbillivirus of 7.1.

As to `CCOc1nn(-c2ccc(C#N)cn2)c(C)c1Cc1ccccc1`, the “growth inhibition (GI)” value with Plasmodium falciparum is “inactive”. In the assay on Measles morbillivirus, the pMIC50 was under 5.

As to `Cc1c(Oc2cc(F)ccc2F)c(OC(C)C)nn1-c1ccc(C2CC2)cn1`, in the assay on Plasmodium falciparum, the “growth inhibition (GI)” value was “inactive”. The compound also showed a pMIC50 in the assay with Measles morbillivirus of 7.4.

For the compound `CCOc1nn(-c2ccc(C3CC3)nn2)c(C)c1Oc1cc(Cl)cc(Cl)c1`, the “growth inhibition (GI)” value in the assay with Plasmodium falciparum is “inactive”. This compound came in with a pMIC50 in the assay with Measles morbillivirus of 6.2.

On to `Cc1c(Oc2c(F)cccc2F)c(OC(C)C)nn1-c1ccc(Cl)nn1`, for which the “growth inhibition (GI)” value with Plasmodium falciparum is “inactive”. In the assay on Measles morbillivirus, this compound displayed a pMIC50 of 6.8.

Regarding `CCCc1cnc(-n2nc(OC(C)C)c(Oc3c(F)cccc3F)c2C)c(F)c1`, the “growth inhibition (GI)” value in the assay with Plasmodium falciparum is “inactive”. The pMIC50 with Measles morbillivirus is 6.7.

With `CCOc1nn(-c2ccc(C(C)=O)cn2)c(C)c1Cc1ccccc1`, in the assay with Plasmodium falciparum, the “growth inhibition (GI)” value was “inactive”. Besides, the pMIC50 in the assay on Measles morbillivirus is under 5.

For the compound `CCOc1nn(-c2ncc(Br)cc2F)c(C)c1Cc1ccccc1`, in the assay on Plasmodium falciparum, the “growth inhibition (GI)” value was “inactive”. In the assay on Measles morbillivirus, this compound returned a pMIC50 of 5.9.

`CCOc1nn(-c2ccc(C3CC3)nn2)c(C)c1Oc1cccc(C(F)(F)F)c1`: the “growth inhibition (GI)” value in the assay with Plasmodium falciparum was “inactive”. Besides, the pMIC50 in the assay on Measles morbillivirus is 6.4.

Take `CCOc1nn(-c2ccc(C3CC3)nn2)c(C)c1Oc1cccc(Cl)c1Cl`: the “growth inhibition (GI)” value in the assay with Plasmodium falciparum was “inactive”. Moreover, the pMIC50 in the assay on Measles morbillivirus is reported as 7.4.

As for `CCOc1nn(-c2ncccc2F)c(C)c1Cc1ccccc1`, in the assay with Plasmodium falciparum, the “growth inhibition (GI)” value is “inactive”. For the same compound, in the assay on Measles morbillivirus, the pMIC50 was 5.2.

In the case of `CCOc1nn(-c2ccc(C3CC3)cn2)c(C)c1Oc1ccccc1Cl`, the “growth inhibition (GI)” value in the assay on Plasmodium falciparum is “inactive”. Further, the pMIC50 in the assay on Measles morbillivirus amounted to 7.9.

With `CC(=O)c1ccc(-n2nc(OC(C)C)c(Oc3c(F)cccc3F)c2C)nc1`, in the assay on Plasmodium falciparum, the “growth inhibition (GI)” value was “inactive”. Further, the pMIC50 with Measles morbillivirus was 6.6.

With `CCOc1nn(-c2cccc(C(F)(F)F)n2)c(C)c1Cc1ccccc1`, in the assay on Plasmodium falciparum, the “growth inhibition (GI)” value was “inactive”. The compound further gave a pMIC50 with Measles morbillivirus of under 5.

Turning to `CCOc1nn(-c2ccc(C3CC3)cn2)c(C)c1Oc1ccc(C(F)(F)F)cc1`, in the assay on Plasmodium falciparum, the “growth inhibition (GI)” value was “inactive”. The pMIC50 in the assay on Measles morbillivirus is 5.3.

With `CCOc1nn(-c2ccc(C(C)C)cn2)c(C)c1Cc1ccccc1`, in the assay on Plasmodium falciparum, the “growth inhibition (GI)” value is “inactive”. For the same compound, the pMIC50 in the assay on Measles morbillivirus stood at 5.9.

For the compound `Cc1ccc(-n2nc(OC(C)C)c(Oc3c(F)cccc3F)c2C)nc1`, the “growth inhibition (GI)” value with Plasmodium falciparum was “inactive”. Also, the pMIC50 in the assay on Measles morbillivirus came out at 7.6.
